# Earlier results as cited in US6656915B1, “Inhibiting T-cell proliferation” (Biocryst Pharmaceuticals, Inc., priority 1999, dated 2003).
# Where two headings read alike, the source gives them in different places.
# Assays:
# [1] = test system: peripheral blood lymphocytes; details: rats
# [2] = test system: peripheral blood lymphocytes; details: dogs
# [3] = upon being administered to a host, alone
# [4] = test system: human T-cells (CCRF-CEM and Molt-4 cells); details: given with 2′-deoxyguanosine; CCRF-CEM and Molt-4 cells in cultures
# T-cells [5] = details: rats; given with 2′-deoxyguanosine
# T-cells [6] = details: humans; PNP inhibitor without exogenous 2′-deoxyguanosine
# PNP = PNP (Homo sapiens, UniProt P00491); details: humans; indicating effective inhibition of PNP
# Sequence of PNP (P00491 whole entry): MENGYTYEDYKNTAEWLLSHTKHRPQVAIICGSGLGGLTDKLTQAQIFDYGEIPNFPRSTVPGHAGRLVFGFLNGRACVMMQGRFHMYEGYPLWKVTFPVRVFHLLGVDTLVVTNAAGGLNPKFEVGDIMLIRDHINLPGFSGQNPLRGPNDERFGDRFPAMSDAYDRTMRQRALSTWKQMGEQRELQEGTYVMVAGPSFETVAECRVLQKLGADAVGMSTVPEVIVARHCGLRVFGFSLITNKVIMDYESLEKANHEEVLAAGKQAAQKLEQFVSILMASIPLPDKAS
# [7] = 2′-deoxyguanosine alone, without PNP inhibition
smiles,measurement,setting,value
Nc1nc2c(ncn2[C@H]2C[C@H](O)[C@@H](CO)O2)c(=O)[nH]1 [2′-deoxyguanosine],cell counts (lymphopenia),[1]; [7],did not significantly decrease cell counts
same,cell counts (lymphopenia),[2]; [7],did not significantly decrease cell counts
same,degradation of exogenous 2′-deoxyguanosine,[3],rapidly degrades
Nc1nc2nc(N)[nH]c2c(=O)[nH]1 [8-Aminoguanine],proliferation of human T-cells,[4],inhibits the proliferation
"Nc1nc2c(nc(N)n2[C@@H]2O[C@H](CO)[C@@H](O)[C@H]2O)c(=O)[nH]1 [8-Aminoguanosine, reference compound]",peripheral blood lymphocytes,[1]; given with 2′-deoxyguanosine,profound fall
same,peripheral blood lymphocytes,[2]; given with 2′-deoxyguanosine,profound fall
same,levels of 2′-deoxyguanosine triphosphate (dGTP) in T-cells,T-cells [5],increased levels
Nc1nc2c(Cc3cccnc3)c[nH]c2c(=O)[nH]1 [9-(3-Pyridylmethyl)-9-deazaguanine],T-cell counts,T-cells [6],did not reduce T-cell counts
same,plasma inosine levels,PNP,increases plasma inosine levels
